Assay results from patent US20260206755A1, “COMPOUNDS AND COMPOSITIONS HAVING KNOCK-DOWN OR BLOOD FEED INHIBITION ACTIVITY AGAINST INSECT PESTS” (priority 2017, published 2026).

System: Anopheles stephensi
Experiment: Anopheles stephensi treated well plate contact test: knockdown and mortality
Assay type: in vivo
Settings: Anopheles stephensi, 24 h, read-out: mortality % 24, without TFNA-AM
Experimental: Examples Anopheles stephensi (Indian Malaria Mosquito)
The individual wells of twelve (12) well tissue culture plates were treated with 200 μl of an ethanol solution containing a test compound of Table 1 or Table 2 at a defined concentration and repeated with also 200 μl of an ethanol solution containing in addition 2 ppm TFNA-AM. Once the deposits were dry, five non-blood fed adult female Anopheles stephensi (between two to five day old) were added to each well, and sustained with a 10% sucrose solution in a cotton wool plug. Assessment of the knockdown after 1 hour, and mortality after 24 and 48 hours was carried out.
In case of multiple tests, the mean value is reported.

Q: COP(=S)(OC)Oc1ccc([N+](=O)[O-])c(C)c1 [Fenitrothion] was tested. Which mortality at 0.02 ppm did it give?
A: 0%

Q: What about the mortality at 0.2 ppm of the same compound?
A: 20%

Q: What about the mortality at 2 ppm of the same compound?
A: 100%

Q: And the mortality at 20 ppm?
A: 100%

Same assay, conditions: Anopheles stephensi, 48 h, read-out: mortality % 48, without TFNA-AM

Q: Which results are given for COP(=S)(OC)Oc1ccc([N+](=O)[O-])c(C)c1 [Fenitrothion]?
A: mortality at 0.02 ppm: 0%; mortality at 0.2 ppm: 100%; mortality at 2 ppm: 100%; mortality at 20 ppm: 100%

Same assay, conditions: Anopheles stephensi; test compound 0.02 ppm, without TFNA-AM, after 24 hours; read-out: mortality % 24, without TFNA-AM

Q: CCOc1ccc(C(C)(C)COCc2cccc(Oc3ccccc3)c2)cc1 [Etofenprox] was tested. Which mortality at 0.02 ppm did it give?
A: 0%

Same assay, conditions: Anopheles stephensi; test compound 0.02 ppm, without TFNA-AM, after 48 hours; read-out: mortality % 48, without TFNA-AM

Q: With CCOc1ccc(C(C)(C)COCc2cccc(Oc3ccccc3)c2)cc1 [Etofenprox] as the compound, how does the mortality at 0.02 ppm read?
A: 0%

Same assay, conditions: Anopheles stephensi; test compound 0.02 ppm, without TFNA-AM, knockdown after 1 hour; read-out: Knock Down, without TFNA-AM

Q: With CCOc1ccc(C(C)(C)COCc2cccc(Oc3ccccc3)c2)cc1 [Etofenprox] as the compound, how does the pest or weed control at 0.02 ppm read?
A: 0%

Q: Which pest or weed control at 0.02 ppm does the source give for COP(=S)(OC)Oc1ccc([N+](=O)[O-])c(C)c1 [Fenitrothion] here?
A: 0%

Same assay, conditions: Anopheles stephensi; test compound 0.2 ppm, without TFNA-AM, after 24 hours; read-out: mortality % 24, without TFNA-AM

Q: CCOc1ccc(C(C)(C)COCc2cccc(Oc3ccccc3)c2)cc1 [Etofenprox] was tested. Which mortality at 0.2 ppm did it give?
A: 20%

Same assay, conditions: Anopheles stephensi; test compound 0.2 ppm, without TFNA-AM, after 48 hours; read-out: mortality % 48, without TFNA-AM

Q: For CCOc1ccc(C(C)(C)COCc2cccc(Oc3ccccc3)c2)cc1 [Etofenprox], which mortality at 0.2 ppm is on record?
A: 20%

Same assay, conditions: Anopheles stephensi; test compound 0.2 ppm, without TFNA-AM, knockdown after 1 hour; read-out: Knock Down, without TFNA-AM

Q: CCOc1ccc(C(C)(C)COCc2cccc(Oc3ccccc3)c2)cc1 [Etofenprox] was tested. Which pest or weed control at 0.2 ppm did it give?
A: 0%

Q: How did the pest or weed control at 0.2 ppm turn out when COP(=S)(OC)Oc1ccc([N+](=O)[O-])c(C)c1 [Fenitrothion] was run?
A: 0%

Same assay, conditions: Anopheles stephensi; test compound 2 ppm, without TFNA-AM, after 24 hours; read-out: mortality % 24, without TFNA-AM

Q: For CCOc1ccc(C(C)(C)COCc2cccc(Oc3ccccc3)c2)cc1 [Etofenprox], which mortality at 2 ppm is on record?
A: 80%

Same assay, conditions: Anopheles stephensi; test compound 2 ppm, without TFNA-AM, after 48 hours; read-out: mortality % 48, without TFNA-AM

Q: Which mortality at 2 ppm does the source give for CCOc1ccc(C(C)(C)COCc2cccc(Oc3ccccc3)c2)cc1 [Etofenprox] here?
A: 80%

Same assay, conditions: Anopheles stephensi; test compound 2 ppm, without TFNA-AM, knockdown after 1 hour; read-out: Knock Down, without TFNA-AM

Q: Which pest or weed control at 2 ppm does the source give for CCOc1ccc(C(C)(C)COCc2cccc(Oc3ccccc3)c2)cc1 [Etofenprox] here?
A: 0%

Q: How did the pest or weed control at 2 ppm turn out when COP(=S)(OC)Oc1ccc([N+](=O)[O-])c(C)c1 [Fenitrothion] was run?
A: 0%

Same assay, conditions: Anopheles stephensi; test compound 20 ppm, without TFNA-AM, after 24 hours; read-out: mortality % 24, without TFNA-AM

Q: Which mortality at 20 ppm does the source give for CCOc1ccc(C(C)(C)COCc2cccc(Oc3ccccc3)c2)cc1 [Etofenprox] here?
A: 100%

Same assay, conditions: Anopheles stephensi; test compound 20 ppm, without TFNA-AM, after 48 hours; read-out: mortality % 48, without TFNA-AM

Q: CCOc1ccc(C(C)(C)COCc2cccc(Oc3ccccc3)c2)cc1 [Etofenprox] was tested. Which mortality at 20 ppm did it give?
A: 100%

Same assay, conditions: Anopheles stephensi; test compound 20 ppm, without TFNA-AM, knockdown after 1 hour; read-out: Knock Down, without TFNA-AM

Q: For CCOc1ccc(C(C)(C)COCc2cccc(Oc3ccccc3)c2)cc1 [Etofenprox], which pest or weed control at 20 ppm is on record?
A: 60%

Q: How did the pest or weed control at 20 ppm turn out when COP(=S)(OC)Oc1ccc([N+](=O)[O-])c(C)c1 [Fenitrothion] was run?
A: 0%

Same assay, conditions: test compound 0.02 ppm plus 2 ppm TFNA-AM, after 24 hours

Q: With CCOc1ccc(C(C)(C)COCc2cccc(Oc3ccccc3)c2)cc1 [Etofenprox] as the compound, how does the “mortality % 24, with TFNA-AM” value read?
A: 60%

Q: COP(=S)(OC)Oc1ccc([N+](=O)[O-])c(C)c1 [Fenitrothion] was tested. Which “mortality % 24, with TFNA-AM” value did it give?
A: 40%

Same assay, conditions: test compound 0.02 ppm plus 2 ppm TFNA-AM, after 48 hours

Q: How did the “mortality % 48, with TFNA-AM” value turn out when CCOc1ccc(C(C)(C)COCc2cccc(Oc3ccccc3)c2)cc1 [Etofenprox] was run?
A: 60%

Q: Which “mortality % 48, with TFNA-AM” value does the source give for COP(=S)(OC)Oc1ccc([N+](=O)[O-])c(C)c1 [Fenitrothion] here?
A: 40%

Same assay, conditions: test compound 0.02 ppm plus 2 ppm TFNA-AM, knockdown after 1 hour

Q: Which “Knock Down, with TFNA-AM” value does the source give for CCOc1ccc(C(C)(C)COCc2cccc(Oc3ccccc3)c2)cc1 [Etofenprox] here?
A: 100%

Q: With COP(=S)(OC)Oc1ccc([N+](=O)[O-])c(C)c1 [Fenitrothion] as the compound, how does the “Knock Down, with TFNA-AM” value read?
A: 100%

Same assay, conditions: test compound 0.2 ppm plus 2 ppm TFNA-AM, after 24 hours

Q: For CCOc1ccc(C(C)(C)COCc2cccc(Oc3ccccc3)c2)cc1 [Etofenprox], which “mortality % 24, with TFNA-AM” value is on record?
A: 100%

Q: Which “mortality % 24, with TFNA-AM” value does the source give for COP(=S)(OC)Oc1ccc([N+](=O)[O-])c(C)c1 [Fenitrothion] here?
A: 80%

Same assay, conditions: test compound 0.2 ppm plus 2 ppm TFNA-AM, after 48 hours

Q: CCOc1ccc(C(C)(C)COCc2cccc(Oc3ccccc3)c2)cc1 [Etofenprox] was tested. Which “mortality % 48, with TFNA-AM” value did it give?
A: 100%

Q: For COP(=S)(OC)Oc1ccc([N+](=O)[O-])c(C)c1 [Fenitrothion], which “mortality % 48, with TFNA-AM” value is on record?
A: 100%

Same assay, conditions: test compound 0.2 ppm plus 2 ppm TFNA-AM, knockdown after 1 hour

Q: CCOc1ccc(C(C)(C)COCc2cccc(Oc3ccccc3)c2)cc1 [Etofenprox] was tested. Which “Knock Down, with TFNA-AM” value did it give?
A: 100%

Q: Which “Knock Down, with TFNA-AM” value does the source give for COP(=S)(OC)Oc1ccc([N+](=O)[O-])c(C)c1 [Fenitrothion] here?
A: 100%

Same assay, conditions: test compound 2 ppm plus 2 ppm TFNA-AM, after 24 hours

Q: Which “mortality % 24, with TFNA-AM” value does the source give for CCOc1ccc(C(C)(C)COCc2cccc(Oc3ccccc3)c2)cc1 [Etofenprox] here?
A: 100%

Q: For COP(=S)(OC)Oc1ccc([N+](=O)[O-])c(C)c1 [Fenitrothion], which “mortality % 24, with TFNA-AM” value is on record?
A: 100%

Same assay, conditions: test compound 2 ppm plus 2 ppm TFNA-AM, after 48 hours

Q: With CCOc1ccc(C(C)(C)COCc2cccc(Oc3ccccc3)c2)cc1 [Etofenprox] as the compound, how does the “mortality % 48, with TFNA-AM” value read?
A: 100%

Q: How did the “mortality % 48, with TFNA-AM” value turn out when COP(=S)(OC)Oc1ccc([N+](=O)[O-])c(C)c1 [Fenitrothion] was run?
A: 100%

Same assay, conditions: test compound 2 ppm plus 2 ppm TFNA-AM, knockdown after 1 hour

Q: Which “Knock Down, with TFNA-AM” value does the source give for CCOc1ccc(C(C)(C)COCc2cccc(Oc3ccccc3)c2)cc1 [Etofenprox] here?
A: 100%

Q: Which “Knock Down, with TFNA-AM” value does the source give for COP(=S)(OC)Oc1ccc([N+](=O)[O-])c(C)c1 [Fenitrothion] here?
A: 100%

Same assay, conditions: test compound 20 ppm plus 2 ppm TFNA-AM, after 24 hours

Q: How did the “mortality % 24, with TFNA-AM” value turn out when CCOc1ccc(C(C)(C)COCc2cccc(Oc3ccccc3)c2)cc1 [Etofenprox] was run?
A: 100%

Q: How did the “mortality % 24, with TFNA-AM” value turn out when COP(=S)(OC)Oc1ccc([N+](=O)[O-])c(C)c1 [Fenitrothion] was run?
A: 100%

Same assay, conditions: test compound 20 ppm plus 2 ppm TFNA-AM, after 48 hours

Q: With CCOc1ccc(C(C)(C)COCc2cccc(Oc3ccccc3)c2)cc1 [Etofenprox] as the compound, how does the “mortality % 48, with TFNA-AM” value read?
A: 100%

Q: Which “mortality % 48, with TFNA-AM” value does the source give for COP(=S)(OC)Oc1ccc([N+](=O)[O-])c(C)c1 [Fenitrothion] here?
A: 100%

Same assay, conditions: test compound 20 ppm plus 2 ppm TFNA-AM, knockdown after 1 hour

Q: Which “Knock Down, with TFNA-AM” value does the source give for CCOc1ccc(C(C)(C)COCc2cccc(Oc3ccccc3)c2)cc1 [Etofenprox] here?
A: 100%

Q: COP(=S)(OC)Oc1ccc([N+](=O)[O-])c(C)c1 [Fenitrothion] was tested. Which “Knock Down, with TFNA-AM” value did it give?
A: 100%
